# Data published in patent US10513521B2, “Compositions and methods for inhibiting BMP” (The Brigham and Women's Hospital, Inc., priority 2014, dated 2019).
# Positions count from the first letter of the chain named.
# What was measured:
# ALK2 [1] = molecular target: T1, ALK2 (Mus musculus, UniProt P37172); experiment: HTRF pSMAD1 cell-based ALK2 assay (C2C12 cells, BMP6 as agonist); settings: cell-based assay, BMP6; read-out: Cell IC50 BMP6
# T1 construct: The C2C12 cell line was selected for the measurement of ALK2 activity using BMP6 as the agonist; host or cells: C2C12
# T1 sequence (P37172 21-509): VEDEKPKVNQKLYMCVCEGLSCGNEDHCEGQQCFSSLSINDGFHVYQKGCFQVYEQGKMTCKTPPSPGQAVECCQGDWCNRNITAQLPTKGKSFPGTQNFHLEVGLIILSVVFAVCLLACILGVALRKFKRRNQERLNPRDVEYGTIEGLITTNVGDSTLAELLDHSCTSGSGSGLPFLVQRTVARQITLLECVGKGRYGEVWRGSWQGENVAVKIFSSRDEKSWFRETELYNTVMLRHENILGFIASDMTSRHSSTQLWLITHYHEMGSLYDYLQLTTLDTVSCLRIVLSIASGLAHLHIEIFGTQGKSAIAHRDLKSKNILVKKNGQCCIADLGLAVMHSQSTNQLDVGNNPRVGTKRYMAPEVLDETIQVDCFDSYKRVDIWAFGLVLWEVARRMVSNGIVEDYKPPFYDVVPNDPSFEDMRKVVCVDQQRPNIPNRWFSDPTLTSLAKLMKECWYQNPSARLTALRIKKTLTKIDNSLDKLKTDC
# Description: 2. HTRF Cell-Based ALK1 and ALK2 Assays in 384-Well Plate Format We have developed a cell based ALK1 kinase assay and a cell-based ALK2 assay. The BAOEC cell line was employed for the measurement of ALK1 activity using BMP9 as the agonist. The C2C12 cell line was selected for the measurement of ALK2 activity using BMP6 as the agonist. The kinase specificity was defined by the specific cell line and agonist. The kinase activity was determined by the status of SMD 1/5/8 phosphorylation stimulated by the agonist.
# HyClone Fetal Bovine Serum was obtained from GE healthcare life sciences (Logan, Utah). BMP6 and BMP9 were purchased from R&D System. […] The compound plates and the white solid MB assay plates were purchased from Greiner Bio-one (Monroe, N.C.).
# HTRF optimization experiments were performed in 384 well plate format. […] Pre-starved cells were then plated in 384 well plate in the starvation medium (containing in 0.1% FBS). After 4 hours, compounds were added to the assay plate and incubated for 30 minutes. The assay plate was then added with BMP6 for C2C12 cells or BMP9 for BAOEC cells and incubated for 30 minutes.
# HTRF assay was performed to measure the status of SMAD 1 phosphorylation after stimulated with the agonist (Table 3). This HTRF phospho SMAD1 cell assay was developed and optimized for the homogenous detection of phospho SMAD 1 levels in cells. […] The plate was incubated at room temperature for overnight.
# ALK1 = ALK1 (Homo sapiens, UniProt P37023); experiment: TR-FRET enzymatic ALK kinase assay, ALK1
# Description: (§1) Briefly, the ALKs enzymatic assay was initiated by dispense 2.5 μl enzyme in 1× kinase reaction buffer. The assay plate was then added with compounds followed by incubation at room temperature for 10 minutes. Then 2.5 μl/well substrate was added.
# ALK2 [2] = molecular target: T2, ALK2 (Homo sapiens, UniProt Q04771); experiment: TR-FRET enzymatic ALK kinase assay, ALK2
# T2 sequence (Q04771 21-509): T1 sequence (P37172 21-509) with V1M, Q10P, I121L, E162D, S310P
# Description: as §1
# ALK3 = ALK3 (Homo sapiens, UniProt P36894); experiment: TR-FRET enzymatic ALK kinase assay, ALK3
# Description: as §1
# ALK4 = molecular target: T3, ALK4 (Homo sapiens, UniProt P36896); experiment: TR-FRET enzymatic ALK kinase assay, ALK4
# T3 sequence (P36896 24-505): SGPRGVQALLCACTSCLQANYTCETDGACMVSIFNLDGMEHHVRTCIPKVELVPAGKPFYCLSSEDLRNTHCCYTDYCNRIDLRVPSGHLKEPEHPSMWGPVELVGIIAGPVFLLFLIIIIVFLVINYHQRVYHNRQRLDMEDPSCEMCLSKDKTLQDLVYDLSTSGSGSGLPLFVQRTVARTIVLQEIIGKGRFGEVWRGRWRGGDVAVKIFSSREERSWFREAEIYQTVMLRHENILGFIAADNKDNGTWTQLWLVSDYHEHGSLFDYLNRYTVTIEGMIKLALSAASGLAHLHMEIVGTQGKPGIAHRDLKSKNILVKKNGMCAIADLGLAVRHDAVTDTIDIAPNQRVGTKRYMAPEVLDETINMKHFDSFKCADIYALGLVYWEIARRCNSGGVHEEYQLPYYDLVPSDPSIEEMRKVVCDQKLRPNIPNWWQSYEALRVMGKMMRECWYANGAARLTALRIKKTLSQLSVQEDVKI
# Description: as §1
# ALK5 = molecular target: T4, ALK5 (Homo sapiens, UniProt P36897); experiment: TR-FRET enzymatic ALK kinase assay, ALK5
# T4 sequence (P36897 34-503): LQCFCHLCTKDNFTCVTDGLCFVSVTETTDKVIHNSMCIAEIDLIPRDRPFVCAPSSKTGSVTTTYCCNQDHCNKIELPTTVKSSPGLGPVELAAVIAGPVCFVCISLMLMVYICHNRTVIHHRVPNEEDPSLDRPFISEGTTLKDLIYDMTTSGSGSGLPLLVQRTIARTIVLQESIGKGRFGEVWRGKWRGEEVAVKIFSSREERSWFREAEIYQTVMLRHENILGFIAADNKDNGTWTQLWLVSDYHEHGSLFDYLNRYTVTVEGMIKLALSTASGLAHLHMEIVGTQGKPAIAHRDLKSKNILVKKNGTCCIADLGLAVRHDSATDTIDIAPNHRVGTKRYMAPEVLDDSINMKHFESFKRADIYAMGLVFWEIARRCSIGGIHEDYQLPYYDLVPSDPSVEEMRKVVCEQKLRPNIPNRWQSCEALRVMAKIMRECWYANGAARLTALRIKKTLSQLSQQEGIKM
# Description: Six ALK kinase enzyme assays were developed for determination of compound activities on ALK1, ALK2, ALK3, ALK4, ALK5 and ALK6.
# as §1
# ALK6 = ALK6 (Homo sapiens, UniProt O00238); experiment: TR-FRET enzymatic ALK kinase assay, ALK6
# Chain of ALK6 (O00238 14-502): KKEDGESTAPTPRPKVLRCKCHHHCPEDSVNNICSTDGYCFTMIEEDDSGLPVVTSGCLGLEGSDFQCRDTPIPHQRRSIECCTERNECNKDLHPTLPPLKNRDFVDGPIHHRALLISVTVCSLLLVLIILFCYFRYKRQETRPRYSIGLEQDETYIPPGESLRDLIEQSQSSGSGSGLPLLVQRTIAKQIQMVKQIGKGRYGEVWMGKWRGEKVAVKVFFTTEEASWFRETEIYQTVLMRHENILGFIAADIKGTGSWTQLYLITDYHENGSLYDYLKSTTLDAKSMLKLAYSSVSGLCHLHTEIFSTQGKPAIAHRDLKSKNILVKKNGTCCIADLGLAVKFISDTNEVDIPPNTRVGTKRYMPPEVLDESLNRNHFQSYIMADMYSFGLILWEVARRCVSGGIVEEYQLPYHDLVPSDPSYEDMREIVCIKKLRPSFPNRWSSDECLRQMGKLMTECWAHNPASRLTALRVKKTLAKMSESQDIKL
# Description: as §1
# Chain of ALK1 (P37023 22-503): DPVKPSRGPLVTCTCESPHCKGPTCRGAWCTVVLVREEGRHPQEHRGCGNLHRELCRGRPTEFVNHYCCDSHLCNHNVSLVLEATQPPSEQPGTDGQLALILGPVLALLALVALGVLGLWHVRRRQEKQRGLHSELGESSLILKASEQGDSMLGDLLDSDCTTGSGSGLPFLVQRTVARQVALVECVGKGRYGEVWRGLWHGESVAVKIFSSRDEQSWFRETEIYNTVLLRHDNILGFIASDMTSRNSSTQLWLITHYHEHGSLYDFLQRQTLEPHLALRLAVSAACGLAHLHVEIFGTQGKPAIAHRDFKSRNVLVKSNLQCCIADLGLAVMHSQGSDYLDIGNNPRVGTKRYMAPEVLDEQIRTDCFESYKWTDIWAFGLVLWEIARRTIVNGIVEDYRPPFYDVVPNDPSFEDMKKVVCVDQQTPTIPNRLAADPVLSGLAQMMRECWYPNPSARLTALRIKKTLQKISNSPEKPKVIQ
# Chain of ALK3 (P36894 24-532): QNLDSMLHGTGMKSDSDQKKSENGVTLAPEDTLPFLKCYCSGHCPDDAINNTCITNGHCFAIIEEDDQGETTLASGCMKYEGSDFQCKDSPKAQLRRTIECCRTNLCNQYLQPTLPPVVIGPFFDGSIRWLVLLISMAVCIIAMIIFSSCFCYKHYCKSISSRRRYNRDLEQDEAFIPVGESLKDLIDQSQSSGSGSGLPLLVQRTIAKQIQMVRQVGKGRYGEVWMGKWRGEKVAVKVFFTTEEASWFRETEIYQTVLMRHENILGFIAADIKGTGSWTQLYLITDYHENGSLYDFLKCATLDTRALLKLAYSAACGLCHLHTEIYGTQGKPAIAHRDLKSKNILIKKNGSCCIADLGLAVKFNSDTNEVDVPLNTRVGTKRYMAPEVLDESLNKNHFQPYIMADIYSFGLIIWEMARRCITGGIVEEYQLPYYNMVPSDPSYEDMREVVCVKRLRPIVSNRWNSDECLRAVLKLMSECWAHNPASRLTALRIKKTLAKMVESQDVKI
compound,measurement,setting,value
"CN(C)CCOc1ccc(-c2cnc3c(-c4ccc(S(N)(=O)=O)c5ccccc45)cnn3c2)cc1 [Compound 61, 4-(6-(4-(2-(dimethylamino)ethoxy)phenyl)pyrazolo[1,5-a]pyrimidin-3-yl)naphthalene-1-sulfonamide]",IC50,ALK2 [1],2200 nM
same,IC50,ALK1,470 nM
same,IC50,ALK2 [2],110 nM
same,IC50,ALK3,> 10000 nM
same,IC50,ALK4,> 10000 nM
same,IC50,ALK5,> 10000 nM
same,IC50,ALK6,> 10000 nM
"CN1CCN(c2ccc(-c3cnc4c(-c5ccc(S(N)(=O)=O)c6ccccc56)cnn4c3)cc2)CC1 [Compound 62, 4-(6-(4-(4-methylpiperazin-1-yl)phenyl)pyrazolo[1,5-a]pyrimidin-3-yl)naphthalene-1-sulfonamide]",IC50,ALK2 [1],3000 nM
same,IC50,ALK1,140 nM
same,IC50,ALK2 [2],74 nM
same,IC50,ALK3,> 10000 nM
same,IC50,ALK4,> 10000 nM
same,IC50,ALK5,> 10000 nM
same,IC50,ALK6,> 10000 nM
"NS(=O)(=O)c1ccc(-c2cnn3cc(-c4ccc(C5(O)CCNCC5)cc4)cnc23)c2ccccc12 [Compound 66, 4-(6-(4-(4-hydroxypiperidin-4-yl)phenyl)pyrazolo[1,5-a]pyrimidin-3-yl)naphthalene-1-sulfonamide]",IC50,ALK2 [1],10000 nM
same,IC50,ALK1,180 nM
same,IC50,ALK2 [2],68 nM
same,IC50,ALK3,> 10000 nM
same,IC50,ALK4,> 10000 nM
same,IC50,ALK5,> 10000 nM
same,IC50,ALK6,> 10000 nM
"C[C@@H]1CNC[C@H](C)N1c1ccc(-c2cnc3c(-c4cccc(C(N)=O)c4)cnn3c2)cc1 [Compound 67, 3-(6-(4-((2R,6S)-2,6-dimethylpiperazin-1-yl)phenyl)pyrazolo[1,5-a]pyrimidin-3-yl)benzamide]",IC50,ALK2 [1],155 nM
same,IC50,ALK1,83 nM
same,IC50,ALK2 [2],33 nM
same,IC50,ALK3,310 nM
same,IC50,ALK4,2600 nM
same,IC50,ALK5,8400 nM
same,IC50,ALK6,2100 nM
"CN(C)CCc1ccc(-c2cnc3c(-c4ccc(S(N)(=O)=O)c5ccccc45)cnn3c2)cc1 [Compound 68, 4-(6-(4-(2-(dimethylamino)ethyl)phenyl)pyrazolo[1,5-a]pyrimidin-3-yl)naphthalene-1-sulfonamide]",IC50,ALK2 [1],950 nM
same,IC50,ALK1,680 nM
same,IC50,ALK2 [2],200 nM
same,IC50,ALK3,> 10000 nM
same,IC50,ALK4,> 10000 nM
same,IC50,ALK5,> 10000 nM
same,IC50,ALK6,> 10000 nM
"C[C@@H]1CNC[C@H](C)N1c1ccc(-c2cnc3c(-c4cccc(C#N)c4)cnn3c2)cc1 [Compound 69, 3-(6-(4-((2R,6S)-2,6-dimethylpiperazin-1-yl)phenyl)pyrazolo[1,5-a]pyrimidin-3-yl)benzonitrile]",IC50,ALK2 [1],2250 nM
same,IC50,ALK1,930 nM
same,IC50,ALK2 [2],140 nM
same,IC50,ALK3,> 10000 nM
same,IC50,ALK4,> 10000 nM
same,IC50,ALK5,> 10000 nM
same,IC50,ALK6,> 10000 nM
"C[C@@H]1CNC[C@H](C)N1c1ccc(-c2cnc3c(-c4cccc(CCO)c4)cnn3c2)cc1 [Compound 70, 2-(3-(6-(4-((2R,6S)-2,6-dimethylpiperazin-1-yl)phenyl)pyrazolo[1,5-a]pyrimidin-3-yl)phenyl)ethanol]",IC50,ALK2 [1],1200 nM
same,IC50,ALK1,280 nM
same,IC50,ALK2 [2],66 nM
same,IC50,ALK3,2800 nM
same,IC50,ALK4,> 10000 nM
same,IC50,ALK5,> 10000 nM
same,IC50,ALK6,> 10000 nM
"C[C@@H]1CNC[C@H](C)N1c1ccc(-c2cnc3c(-c4ccc(CS(N)(=O)=O)cc4)cnn3c2)cc1 [Compound 71, (4-(6-(4-((2R,6S)-2,6-dimethylpiperazin-1-yl)phenyl)pyrazolo[1,5-a]pyrimidin-3-yl)phenyl)methanesulfonamide]",IC50,ALK2 [1],22000 nM
same,IC50,ALK1,> 10000 nM
same,IC50,ALK2 [2],5100 nM
same,IC50,ALK3,> 10000 nM
same,IC50,ALK4,> 10000 nM
same,IC50,ALK5,> 10000 nM
same,IC50,ALK6,> 10000 nM
"C[C@@H]1CNC[C@H](C)N1c1ccc(-c2cnc3c(-c4cccc(CS(N)(=O)=O)c4)cnn3c2)cc1 [Compound 73, (3-(6-(4-((2R,6S)-2,6-dimethylpiperazin-1-yl)phenyl)pyrazolo[1,5-a]pyrimidin-3-yl)phenyl)methanesulfonamide]",IC50,ALK2 [1],750 nM
same,IC50,ALK1,160 nM
same,IC50,ALK2 [2],37 nM
same,IC50,ALK3,1400 nM
same,IC50,ALK4,6400 nM
same,IC50,ALK5,> 10000 nM
same,IC50,ALK6,> 10000 nM
"C[C@@H]1CNC[C@H](C)N1c1ccc(-c2cnc3c(-c4cccc(CO)c4)cnn3c2)cc1 [Compound 74, (3-(6-(4-((2R,6S)-2,6-dimethylpiperazin-1-yl)phenyl)pyrazolo[1,5-a]pyrimidin-3-yl)phenyl)methanol]",IC50,ALK2 [1],80 nM
same,IC50,ALK1,150 nM
same,IC50,ALK2 [2],40 nM
same,IC50,ALK3,1700 nM
same,IC50,ALK4,> 10000 nM
same,IC50,ALK5,> 10000 nM
same,IC50,ALK6,> 10000 nM
"CCS(=O)(=O)c1cccc(-c2cnn3cc(-c4ccc(CCN5CCCCC5)cc4)cnc23)c1 [Compound 106, 3-(3-(ethylsulfonyl)phenyl)-6-(4-(2-(piperidin-1-yl)ethyl)phenyl)pyrazolo[1,5-a]pyrimidine]",IC50,ALK2 [1],2.2 nM
same,IC50,ALK1,220 nM
same,IC50,ALK2 [2],66 nM
same,IC50,ALK3,2200 nM
same,IC50,ALK4,> 10000 nM
same,IC50,ALK5,> 10000 nM
same,IC50,ALK6,> 10000 nM
"Cc1ccc([S+](=O)([O-])C(F)(F)F)cc1-c1cnn2cc(-c3ccc(N4[C@H](C)CNC[C@@H]4C)cc3)cnc12 [Compound 107, 6-(4-((2R,6S)-2,6-dimethylpiperazin-1-yl)phenyl)-3-(2-methyl-5-((trifluoromethyl)sulfonyl)phenyl)pyrazolo[1,5-a]pyrimidine]",IC50,ALK2 [1],2130 nM
same,IC50,ALK1,> 10000 nM
same,IC50,ALK2 [2],6600 nM
same,IC50,ALK3,> 10000 nM
same,IC50,ALK4,> 10000 nM
same,IC50,ALK5,> 10000 nM
same,IC50,ALK6,> 10000 nM
